Test results from ChEMBL document CHEMBL2010727, “A novel series of benzimidazole NR2B-selective NMDA receptor antagonists” (Bioorg Med Chem Lett, 2012).
Active and inactive are the calls of the source. The calls are words filed in the database; no cut-off is given here.

Experiments:
[1] = molecular target: T1, Glutamate NMDA receptor; GRIN1/GRIN2B (Homo sapiens) (UniProt Q05586+Q13224); test: Reversible inhibition of human NR1-NR2B receptor expressed in HEK293T cells assessed as inhibition of glycine-induced response by whole cell voltage clamp electrophysiology assay; type: cell-based; settings: HEK-293T
[2] = molecular target: T1, Glutamate NMDA receptor; GRIN1/GRIN2B (Homo sapiens); test: Reversible inhibition of human NR1-NR2B receptor expressed in HEK293T cells assessed as inhibition of glutamate-induced response by whole cell voltage clamp electrophysiology assay; type: cell-based; settings: HEK-293T
[3] = Inhibition of alpha1 adrenergic receptor at 10 uM
[4] = Antagonist activity at human NR1-NR2A receptor by FLIPR-based Ca2+ flux assay
[5] = molecular target: Glutamate receptor ionotropic, NMDA 2B (Homo sapiens, UniProt Q05586+Q13224); test: Displacement of [3H]-Ro256981 from human NR2B receptor
Homo sapiens = species: Homo sapiens; test: Selectivity ratio of human NR2B receptor over human ERG
Cytochrome P450 2C9 = Cytochrome P450 2C9 (Homo sapiens, UniProt P11712); test: Inhibition of CYP2C9; type: ADME
Cytochrome P450 2D6 = Cytochrome P450 2D6 (Homo sapiens, UniProt P10635); test: Inhibition of CYP2D6; type: ADME
Cytochrome P450 3A4 = Cytochrome P450 3A4 (Homo sapiens, UniProt P08684); test: Inhibition of CYP3A4; type: ADME
Cytochrome P450 2C19 = Cytochrome P450 2C19 (Homo sapiens, UniProt P33261); test: Inhibition of CYP2C19; type: ADME
[6] = Tmax in rat at 3 mg/kg, sc; type: ADME, organism-based; design: dose 3 mg/kg, route subcutaneous; settings: in vivo
Liver microsomes = test: Intrinsic clearance in human liver microsomes; type: ADME, Microsome
Cytochrome P450 1A2 = molecular target: T2, Cytochrome P450 1A2 (Homo sapiens, UniProt P05177); test: Inhibition of CYP1A2; type: ADME
T2 sequence (P05177 whole entry): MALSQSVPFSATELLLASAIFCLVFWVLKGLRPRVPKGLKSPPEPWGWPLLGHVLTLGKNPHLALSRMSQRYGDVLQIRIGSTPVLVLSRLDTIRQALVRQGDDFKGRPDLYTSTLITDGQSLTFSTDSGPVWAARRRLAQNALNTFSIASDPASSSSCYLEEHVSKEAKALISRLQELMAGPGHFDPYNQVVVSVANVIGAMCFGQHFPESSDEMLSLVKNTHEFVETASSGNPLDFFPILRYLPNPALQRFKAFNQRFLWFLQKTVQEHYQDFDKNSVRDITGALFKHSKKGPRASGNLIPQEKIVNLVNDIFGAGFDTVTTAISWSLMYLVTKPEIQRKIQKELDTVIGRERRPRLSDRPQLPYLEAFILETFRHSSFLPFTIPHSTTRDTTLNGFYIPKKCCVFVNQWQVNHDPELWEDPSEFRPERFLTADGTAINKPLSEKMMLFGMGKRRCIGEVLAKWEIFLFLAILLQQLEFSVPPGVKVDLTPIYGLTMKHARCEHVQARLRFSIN

[7] = Ratio of drug level in brain to blood in rat at 3 mg/kg, sc; type: ADME, organism-based; design: dose 3 mg/kg, route subcutaneous
[8] = Terminal half life in rat at 3 mg/kg, sc; type: ADME, organism-based; design: dose 3 mg/kg, route subcutaneous; settings: in vivo, read-out: beta t1/2 (converted)
Blood = test: Drug uptake in rat blood at 3 mg/kg, sc; type: ADME, organism-based; design: dose 3 mg/kg, route subcutaneous; settings: in vivo, read-out: Drug uptake

Cytochrome P450 2C9, sequence (P11712 whole entry): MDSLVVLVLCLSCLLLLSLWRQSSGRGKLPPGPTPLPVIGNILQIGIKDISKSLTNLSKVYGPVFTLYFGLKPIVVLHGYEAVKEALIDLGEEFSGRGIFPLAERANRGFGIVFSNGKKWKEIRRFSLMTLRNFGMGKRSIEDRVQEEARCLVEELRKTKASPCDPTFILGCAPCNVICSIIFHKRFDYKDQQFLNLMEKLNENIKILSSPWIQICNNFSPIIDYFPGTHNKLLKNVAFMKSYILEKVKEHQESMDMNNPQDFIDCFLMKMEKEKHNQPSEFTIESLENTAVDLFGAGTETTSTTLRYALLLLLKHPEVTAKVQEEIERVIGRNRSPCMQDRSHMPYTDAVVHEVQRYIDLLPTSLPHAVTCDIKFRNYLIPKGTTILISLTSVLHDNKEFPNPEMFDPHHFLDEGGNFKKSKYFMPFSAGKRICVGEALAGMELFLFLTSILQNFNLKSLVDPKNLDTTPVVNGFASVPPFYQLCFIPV
Cytochrome P450 3A4, sequence (P08684 whole entry): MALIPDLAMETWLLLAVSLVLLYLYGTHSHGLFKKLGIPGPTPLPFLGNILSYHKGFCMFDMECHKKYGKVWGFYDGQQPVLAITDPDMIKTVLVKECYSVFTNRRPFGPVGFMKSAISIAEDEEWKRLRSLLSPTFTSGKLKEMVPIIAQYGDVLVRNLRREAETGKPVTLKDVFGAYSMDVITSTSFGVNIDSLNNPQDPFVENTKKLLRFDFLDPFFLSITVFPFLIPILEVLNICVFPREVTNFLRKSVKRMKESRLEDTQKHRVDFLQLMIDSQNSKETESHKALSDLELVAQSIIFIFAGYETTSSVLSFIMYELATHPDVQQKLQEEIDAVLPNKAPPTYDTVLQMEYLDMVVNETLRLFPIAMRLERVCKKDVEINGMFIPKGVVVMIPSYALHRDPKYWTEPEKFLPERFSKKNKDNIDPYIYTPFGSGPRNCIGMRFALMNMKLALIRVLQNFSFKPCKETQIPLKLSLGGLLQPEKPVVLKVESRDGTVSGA
Cytochrome P450 2D6, sequence (P10635 whole entry): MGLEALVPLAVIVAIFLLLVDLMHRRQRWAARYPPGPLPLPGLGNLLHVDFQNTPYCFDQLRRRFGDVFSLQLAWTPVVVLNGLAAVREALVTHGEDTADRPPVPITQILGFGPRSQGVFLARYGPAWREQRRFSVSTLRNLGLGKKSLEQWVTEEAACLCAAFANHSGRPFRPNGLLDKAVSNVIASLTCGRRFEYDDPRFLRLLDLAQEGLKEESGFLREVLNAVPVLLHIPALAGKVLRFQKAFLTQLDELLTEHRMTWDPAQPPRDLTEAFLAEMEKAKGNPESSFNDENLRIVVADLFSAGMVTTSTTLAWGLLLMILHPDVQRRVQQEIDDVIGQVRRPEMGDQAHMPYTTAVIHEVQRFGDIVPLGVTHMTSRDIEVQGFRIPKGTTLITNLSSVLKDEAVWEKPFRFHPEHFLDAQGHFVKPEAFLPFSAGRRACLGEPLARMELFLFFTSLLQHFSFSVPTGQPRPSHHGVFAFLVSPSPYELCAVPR
Cytochrome P450 2C19, sequence (P33261 whole entry): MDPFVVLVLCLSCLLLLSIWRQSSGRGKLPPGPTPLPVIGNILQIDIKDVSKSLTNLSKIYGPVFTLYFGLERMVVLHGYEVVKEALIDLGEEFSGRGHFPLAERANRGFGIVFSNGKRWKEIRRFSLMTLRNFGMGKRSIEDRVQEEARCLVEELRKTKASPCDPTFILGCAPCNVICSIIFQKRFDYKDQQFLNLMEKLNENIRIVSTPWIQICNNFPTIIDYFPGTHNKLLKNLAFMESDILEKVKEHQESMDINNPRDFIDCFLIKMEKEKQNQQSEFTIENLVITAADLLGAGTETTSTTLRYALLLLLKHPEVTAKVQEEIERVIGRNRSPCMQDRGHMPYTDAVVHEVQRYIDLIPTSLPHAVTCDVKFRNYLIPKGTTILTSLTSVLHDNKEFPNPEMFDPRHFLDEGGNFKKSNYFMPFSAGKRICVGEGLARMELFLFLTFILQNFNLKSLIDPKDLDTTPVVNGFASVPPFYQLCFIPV

| Structure (SMILES) | inhibition [3] [%] | IC50 [4] [µM] | IC50 [5] [µM] | Selectivity ratio (Homo sapiens) | further results |
| --- | --- | --- | --- | --- | --- |
| Fc1ccc2[nH]c(-c3ccccc3)nc2c1CN1CCCC1 | < 50 |  |  |  | inhibition [1]: Active; inhibition [2]: Active |
| Oc1ccc2nc(-c3cccc(F)c3F)[nH]c2c1CNCc1ccco1 |  | > 50.1 | 0.794 |  |  |
| Fc1ccc2[nH]c(-c3ccccc3)nc2c1CN1CCOCC1 | < 50 |  |  | > 100 | inhibition [1]: Active; inhibition [2]: Active |
| Cc1ccc(-c2nc3c(CNC4CC4)c(O)ccc3[nH]2)cc1 | < 50 | > 50.1 | 0.0398 | > 100 |  |
| CCCNCc1c(O)ccc2[nH]c(-c3ccccc3)nc12 | < 50 |  |  |  |  |
| Oc1ccc2[nH]c(-c3ccccc3)nc2c1CN1CCC(c2ccccc2)CC1 |  | > 50.1 | 0.0794 | > 100 |  |
| Oc1ccc2[nH]c(-c3cccc(F)c3F)nc2c1CNCc1ccco1 | < 50 |  |  | > 100 |  |
| c1ccc(-c2nc3c(CN4CCCCC4)cccc3[nH]2)cc1 | < 50 |  |  |  | inhibition [1]: Active; inhibition [2]: Active |
| CN(C)Cc1c(O)ccc2[nH]c(-c3ccccc3)nc12 | < 50 |  |  |  |  |
| Oc1ccc2[nH]c(-c3cccc(F)c3F)nc2c1CN1CCCC1 | < 50 |  |  | > 100 |  |
| CC(C)NCc1c(F)ccc2[nH]c(-c3ccccc3)nc12 | < 50 |  |  | > 100 | inhibition [1]: Active; inhibition [2]: Active |
| CCC1CCCCN1Cc1c(F)ccc2nc(-c3ccccc3)[nH]c12 (stereo not drawn) |  | > 50.1 | 1 |  |  |
| Oc1ccc2[nH]c(-c3ccccc3)nc2c1CN1CCCCC1 | < 50 |  |  |  | IC50 (Cytochrome P450 2C9): > 30 µM; IC50 (Cytochrome P450 2D6): 6 µM; IC50 (Cytochrome P450 3A4): > 30 µM; IC50 (Cytochrome P450 2C19): > 30 µM; Tmax [6]: 48 min; CLH (Liver microsomes): 3.9 mL/min/g; IC50 (Cytochrome P450 1A2): 3 µM; Kp [7]: 2.7; half-life [8]: 66 min; concentration (Blood): 600 nM |
| Cc1cccc2[nH]c(-c3ccccc3)nc12 | < 50 | > 50.1 | > 10 | > 100 | inhibition [1]: Active; inhibition [2]: Active |
| Oc1ccc2[nH]c(-c3ccccc3)nc2c1CNC1CCCC1 | < 50 |  |  | > 100 |  |
| CC(C)NCc1c(F)ccc2nc(-c3ccccc3)[nH]c12 |  | > 50.1 | 0.794 |  |  |
| Oc1ccc2[nH]c(-c3ccccc3)nc2c1CN1CCCC1 | < 50 |  |  | > 100 |  |
| Oc1ccc2[nH]c(-c3ccccc3)nc2c1CN1CCOCC1 | < 50 |  |  |  |  |

| Structure (SMILES) | inhibition [3] [%] | IC50 [4] [µM] | IC50 [5] [µM] | Selectivity ratio (Homo sapiens) | further results |
| --- | --- | --- | --- | --- | --- |
| c1ccc(-c2nc3cccc(CN4CCCCC4)c3[nH]2)cc1 |  |  |  |  | IC50 (Cytochrome P450 2C9): > 50 µM; IC50 (Cytochrome P450 2D6): 5 µM; IC50 (Cytochrome P450 3A4): > 50 µM; IC50 (Cytochrome P450 2C19): > 50 µM; CLH (Liver microsomes): 3.6 mL/min/g; IC50 (Cytochrome P450 1A2): 7 µM |
| Oc1ccc2[nH]c(-c3cccc(F)c3F)nc2c1CNCc1cccs1 | < 50 |  |  |  |  |
| Oc1ccc2[nH]c(Cc3ccccc3)nc2c1CN1CCCC1 | < 50 |  |  |  |  |
| CN1CCN(Cc2c(O)ccc3nc(-c4ccccc4)[nH]c23)CC1 |  | > 50.1 | 0.398 |  |  |
| O=C(c1cccc2nc(-c3ccccc3)[nH]c12)N1CCCCC1 |  | > 50.1 | > 10 |  |  |
| Oc1ccc2nc(-c3ccccc3)[nH]c2c1CN1CCCC1 |  | > 50.1 | 0.00794 |  |  |
| Fc1ccc2[nH]c(-c3ccccc3)nc2c1CN1CCCCC1 | < 50 |  |  | > 100 | inhibition [1]: Active; inhibition [2]: Active |
| Fc1ccc2nc(-c3ccccc3)[nH]c2c1CN1CCCC1 |  |  |  |  | IC50 (Cytochrome P450 2C9): > 30 µM; IC50 (Cytochrome P450 2D6): 5 µM; IC50 (Cytochrome P450 3A4): > 30 µM; IC50 (Cytochrome P450 2C19): > 30 µM; CLH (Liver microsomes): < 0.5 mL/min/g; IC50 (Cytochrome P450 1A2): 16 µM |
| Fc1ccc2nc(-c3ccccc3)[nH]c2c1CN1CCOCC1 |  | > 50.1 | 2.51 |  |  |
| Fc1ccc2[nH]c(-c3ccccc3)nc2c1CN1CCCCCC1 | < 50 | > 50.1 | 0.2 | > 100 | inhibition [1]: Active; inhibition [2]: Active |
| Oc1ccc2nc(-c3cccc(F)c3F)[nH]c2c1CN1CCCC1 |  | > 50.1 | 0.0126 |  |  |
| O=C(c1cccc2[nH]c(-c3ccccc3)nc12)N1CCCCC1 | < 50 |  |  | > 100 | inhibition [1]: Active; inhibition [2]: Active |
| CN1CCN(Cc2c(O)ccc3[nH]c(-c4ccccc4)nc23)CC1 | < 50 |  |  | > 100 |  |
| Oc1ccc2[nH]cnc2c1CN1CCCCC1 | < 50 |  |  |  |  |
| Oc1ccc2[nH]c(-c3ccccc3)nc2c1CN1CCCCCC1 | < 50 | > 50.1 | 0.00794 | > 100 |  |
| CCC1CCCCN1Cc1c(F)ccc2[nH]c(-c3ccccc3)nc12 (stereo not drawn) | < 50 |  |  | > 100 | inhibition [1]: Active; inhibition [2]: Active |
| Oc1ccc2nc(-c3ccccc3)[nH]c2c1CNC1CCCC1 |  | > 50.1 | 0.0316 |  |  |
| Fc1ccc2nc(-c3ccccc3)[nH]c2c1CN1CCCCC1 |  | > 50.1 | 0.0794 |  |  |
